Assay results published in PubChem BioAssay (NCI).
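Following 48 hours of exposure in 96-well plates, responses at five concentrations were used to interpolate endpoints linearly. TGI marks complete inhibition of growth.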

Key:
Assay in all cases: NCI anticancer screen, dose series, 48 h
NCI-H460 lung = tested on: NCI-H460 lung
K-562 leukemia = tested on: K-562 leukemia
SK-MEL-5 melanoma = tested on: SK-MEL-5 melanoma
SK-MEL-2 melanoma = tested on: SK-MEL-2 melanoma
NCI/ADR-RES ovarian = tested on: NCI/ADR-RES ovarian
PC-3 prostate = tested on: PC-3 prostate
BT-549 breast = tested on: BT-549 breast
MDA-MB-435 = tested on: MDA-MB-435
NCI-H522 lung = tested on: NCI-H522 lung
OVCAR-8 ovarian = tested on: OVCAR-8 ovarian
SNB-19 CNS = tested on: SNB-19 CNS
SK-OV-3 ovarian = tested on: SK-OV-3 ovarian
ACHN renal = tested on: ACHN renal
SK-MEL-28 melanoma = tested on: SK-MEL-28 melanoma
UACC-257 melanoma = tested on: UACC-257 melanoma
DU-145 prostate = tested on: DU-145 prostate
MDA-N = tested on: MDA-N
HCT-116 colon = tested on: HCT-116 colon
RPMI-8226 leukemia = tested on: RPMI-8226 leukemia
RXF 393 renal = tested on: RXF 393 renal

Row | Structure (SMILES) | TGI (NCI-H460 lung) [µM] | TGI (K-562 leukemia) [µM] | TGI (SK-MEL-5 melanoma) [µM] | TGI (SK-MEL-2 melanoma) [µM] | TGI (NCI/ADR-RES ovarian) [µM] | TGI (PC-3 prostate) [µM] | TGI (BT-549 breast) [µM] | TGI (MDA-MB-435) [µM] | TGI (NCI-H522 lung) [µM] | TGI (OVCAR-8 ovarian) [µM] | TGI (SNB-19 CNS) [µM] | TGI (SK-OV-3 ovarian) [µM] | TGI (ACHN renal) [µM] | TGI (SK-MEL-28 melanoma) [µM] | TGI (UACC-257 melanoma) [µM] | TGI (DU-145 prostate) [µM] | TGI (MDA-N) [µM] | TGI (HCT-116 colon) [µM] | TGI (RPMI-8226 leukemia) [µM] | TGI (RXF 393 renal) [µM]
1 | C[C@@H](C[C@H]1OC(C)(C)O[C@@H]1C(C)(C)O)[C@H]1CC=C2[C@]3(C)[C@H](O)C[C@H]4C(C)(C)[C@H](O)CC[C@]4(C)[C@H]3CC[C@]21C | 14.2 | 13.9 | 18.3 | 24.7 | 21.9 | 14.6 | 22.4 | 17.7 | 20.9 | 27.1 | 20.7 | 20.6 | 15.8 | 18.6 | 20.4 | 28.7 | 16.8 | 16 | 12.8 | 12.1
2 | COc1ccc(/C=C2/C(=O)N(C(=O)c3ccccc3O)N=C2C)cc1 | > 100 | > 100 | 9.56 | > 100 | 14.1 | > 100 | 98.1 | > 100 | 8.51 | > 41.1 | > 100 | > 100 | > 100 | > 100 | > 100 | > 100 | > 100 | > 100 | > 100 | 1.23
3 | COc1ccc2c(O)c(S(=O)(=O)c3ccc(C)cc3)c(=O)oc2c1OC | > 100 | > 100 | > 100 | > 100 | > 100 | > 100 | > 100 | > 100 | > 100 | > 100 | > 100 | > 100 | > 100 | > 100 | > 100 | > 100 | > 100 | > 100 | > 100 | > 100
4 | CCOC(=O)c1cn2c(n1)sc1cc(OC)ccc12 | > 100 | > 100 | > 44.3 | > 100 | > 87.3 | > 100 | > 100 | 3.48 | > 100 | > 100 | > 100 | > 100 | > 100 | > 100 | > 100 | 24.6 | > 22.6 | > 43.9 | > 100 | 64.1
5 | COc1ccc(-c2oc3cc(OC)c(OC)c(O)c3c(=O)c2OC)cc1 | > 100 | > 100 | > 100 | > 100 | > 100 | > 100 | 42 | > 100 | > 100 | > 100 | > 100 | > 100 | > 100 | > 100 | > 100 | > 100 | > 100 | > 100 | > 100 | 78.8
6 | Cc1nc2ccc(S(=O)(=O)NS(=O)(=O)c3ccc(-c4ccccc4)cc3)cc2c(=O)n1NS(=O)(=O)c1ccc(-c2ccccc2)cc1 | > 100 | > 100 | > 100 | > 100 | > 100 | > 100 | > 100 | > 100 | > 100 | > 100 | > 100 | > 100 | > 100 | > 100 | > 100 | > 100 | > 100 | > 100 | > 100 | > 100
7 | C[C@H]1C2Cc3cc(O)ccc3[C@@]1(C)CCN2CCc1ccc(N)cc1 | > 100 | 52.6 | 27.5 | > 100 | 63.2 | 34.8 | > 100 | 32.5 | 36.2 | 45.8 | > 100 | > 100 | > 100 | 34.4 | 36.5 | > 100 | 38.4 | 31.2 | > 100 | > 100
8 | N=c1oc2ccccc2cc1-c1nc2ccccc2[nH]1 | > 100 | 82.6 | > 100 | > 100 | 64.2 | > 100 | 87.4 | 48.2 | 4.57 | > 100 | > 100 | > 100 | 45.4 | > 100 | > 100 | 35.7 | 40.5 | > 100 | > 100 | > 100
9 | CCc1ccc2[nH]c(O)c(C3=Nc4ccccc4C3=O)c2c1 | > 100 | > 100 | 33.4 | 43.7 | > 100 | 50.1 | 72.8 | > 100 | 75.2 | 57 | 31.2 | 41.5 | 24.8 | > 100 | > 100 | > 100 | > 100 | 35.4 | > 100 | 51.4
10 | CC12CC(=O)Nc3ccccc3N1C(c1ccccc1)=NO2 (stereo not drawn) | > 100 | > 100 | > 100 | > 100 | > 100 | > 100 | > 100 | > 100 | > 100 | > 100 | > 100 | > 100 | > 100 |  | > 100 | > 100 | > 100 | > 100 | > 100 | > 100
11 | C=C1C[C@@H](O)[C@@H](Br)C(C)(C)[C@@]12C=CC(=O)CC2 | > 100 | > 100 | > 100 | > 100 | > 100 | 7.97 | > 100 | > 100 | > 100 | > 100 | > 100 | > 100 | > 100 | > 100 | > 100 | > 100 | > 100 | > 100 | > 100 | > 100
12 | CC1CN=C(Nc2cccc(F)c2)S1 (stereo not drawn) |  | > 100 | > 100 | > 100 | > 100 | > 100 | > 100 | > 100 | > 100 | > 100 | > 100 | > 100 | > 100 | > 100 | > 100 | > 100 | > 100 | > 100 | > 100 | > 100
13 | COc1c2c(nc3ccccc13)-c1cc(C(CC(=O)OC(C)(C)C)C(=O)OC(C)C)c(CO)c(=O)n1C2 (stereo not drawn) | > 86.1 | > 100 | > 100 | > 100 | > 100 | > 100 | > 100 | > 100 | > 100 | > 100 | > 100 | > 100 | > 100 | > 100 | > 100 | > 100 | > 100 | > 100 | > 100 | > 100
14 | O=[N+]([O-])C(/C(Cl)=C(\Cl)Br)=C(/Cl)SCc1ccccc1 | 30.5 | 4.12 | 15 | 18.1 | 8.62 | 14.3 | 7.38 | 3.79 | 4.79 | 8.13 | 38.8 | 33.7 | 8.64 | 5.98 | 22.1 | 25.7 | 4.09 | 7.11 | 5.42 | 4.85
15 | O=C(Cn1cc(Br)c(=O)[nH]c1=O)c1ccc(-c2ccccc2)cc1 | > 48 | > 17.3 | > 29.9 | > 17.3 | > 100 | > 45.9 | > 23.8 | > 55.3 | > 13.9 | 76.5 | 13.2 | > 100 | > 100 | > 19.9 | > 100 | > 30.7 | > 100 | > 100 | > 100 | > 100
16 | O=C1NC(Nc2ccccc2)=N/C1=C\c1c(Cl)cccc1Cl | > 100 | > 100 | 37.6 | 49 | > 100 | 39.6 | > 100 | > 100 | > 100 | 65.1 | > 100 | 49.7 | > 100 | > 100 | 78.1 | 76.3 | 60.9 | > 100 | > 100 | 45.3
17 | COc1ccc(/C=C2\C[C@H]3[C@@H]4CCC5=C/C(=N/O)CC[C@]5(C)[C@H]4CC[C@]3(C)\C2=N\O)cc1 | > 100 | > 100 | 25.9 | 72.4 | > 100 | > 100 | 53.7 | > 100 | 91.7 | > 100 | > 100 | > 100 | 98.3 | > 100 | > 100 | > 100 | > 100 | > 100 | 93.5 | 98.8
18 | Cc1ccc(-c2c(-c3ccccc3)[nH]c(C)c2C(=O)ONC(=O)c2ccccc2)cc1 | 5.21 | 6.72 | 18.3 | 16.2 | 18.3 | 18.7 | 14.1 | 5.49 | 6.48 | 18.5 | 20.1 | 30 | 4.15 | 27.1 | 27.3 | 3.82 | 6.12 | 7.27 | 29.5 | 5.83
19 | Nc1nccc(NCC2(CO)CC(OCc3ccccc3)C2)n1 (stereo not drawn) | > 100 | > 100 | > 100 | > 100 | > 100 | > 100 | > 100 | > 100 | > 100 | > 100 |  |  | > 100 | > 100 | > 100 | > 100 | > 100 | > 100 | > 100 | > 100
20 | COc1cc(C2c3cc4c(cc3OC(NNS(=O)(=O)c3ccc(C)cc3)C2C)OCO4)cc(OC)c1OC (stereo not drawn) | 12.4 |  | 25 | 36.9 | > 100 | > 72.5 | 45.6 | 2.25 | 4.87 | 46.8 | > 49.1 | > 70.6 | > 52 | > 91.2 | > 53.2 | > 100 | 2.01 | 12.1 | 18.4 | 23.8
21 | O=C(/C=C1\Sc2ccccc2N=C1CC(=O)c1ccccc1)c1ccccc1 | 27.5 | 20 | 19 | 87.2 | 18.7 | > 100 | 37.9 | 29.6 | 55.4 | 37 | > 100 | 72 | 72.5 | 57.2 | > 100 | 89.1 | > 100 | 19.2 | 26.3 | > 100
22 | N#CC1=C(N)N(/N=C/c2ccccc2)C(c2ccccc2)C1(C#N)C#N (stereo not drawn) |  | > 26 | 30.9 | 34.9 | 54.2 | 34.5 | 29.4 | 33.7 | 16.6 | 38 | > 54.6 | 26.3 | 14.9 | 9.91 | 23.4 | 30.6 | 30.5 | 8.13 | 18.5 | 9.83
23 | O=c1[nH]nc(-c2ccccc2)n1/N=C/c1ccccc1O | > 100 | > 100 | > 100 | > 100 | > 100 | > 100 | > 100 | > 100 | > 100 | > 100 | > 100 | 53.9 | > 100 |  | > 100 | > 100 | > 100 | > 100 | > 100 | > 100
